{
  "source": "ChEMBL document CHEMBL5465560",
  "about": "“Selectivity Literature for EUbOPEN Chemogenomic Library” (2024)",
  "key": {"[1]": {"biological_target": "T1, Serine/threonine-protein kinase 17A (Homo sapiens) (UniProt Q9UEE5)", "T1 sequence (whole entry)": "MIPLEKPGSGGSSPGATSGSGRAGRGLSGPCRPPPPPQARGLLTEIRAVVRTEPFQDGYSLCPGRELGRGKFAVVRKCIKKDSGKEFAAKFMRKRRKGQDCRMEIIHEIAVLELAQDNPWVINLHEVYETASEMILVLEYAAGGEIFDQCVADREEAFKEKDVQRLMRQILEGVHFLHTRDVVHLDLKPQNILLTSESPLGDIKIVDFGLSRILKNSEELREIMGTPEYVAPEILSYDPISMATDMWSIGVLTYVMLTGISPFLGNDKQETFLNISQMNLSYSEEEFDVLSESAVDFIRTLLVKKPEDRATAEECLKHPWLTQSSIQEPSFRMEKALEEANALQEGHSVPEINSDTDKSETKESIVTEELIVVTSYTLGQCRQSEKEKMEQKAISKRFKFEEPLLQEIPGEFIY", "assay": "Selectivity interaction (KinomeScan (DiscoverX)) EUB0001079a STK17A", "details": "at 1 µM"}, "[2]": {"biological_target": "T2, Cyclin-G-associated kinase (Homo sapiens) (UniProt O14976)", "T2 sequence (whole entry)": "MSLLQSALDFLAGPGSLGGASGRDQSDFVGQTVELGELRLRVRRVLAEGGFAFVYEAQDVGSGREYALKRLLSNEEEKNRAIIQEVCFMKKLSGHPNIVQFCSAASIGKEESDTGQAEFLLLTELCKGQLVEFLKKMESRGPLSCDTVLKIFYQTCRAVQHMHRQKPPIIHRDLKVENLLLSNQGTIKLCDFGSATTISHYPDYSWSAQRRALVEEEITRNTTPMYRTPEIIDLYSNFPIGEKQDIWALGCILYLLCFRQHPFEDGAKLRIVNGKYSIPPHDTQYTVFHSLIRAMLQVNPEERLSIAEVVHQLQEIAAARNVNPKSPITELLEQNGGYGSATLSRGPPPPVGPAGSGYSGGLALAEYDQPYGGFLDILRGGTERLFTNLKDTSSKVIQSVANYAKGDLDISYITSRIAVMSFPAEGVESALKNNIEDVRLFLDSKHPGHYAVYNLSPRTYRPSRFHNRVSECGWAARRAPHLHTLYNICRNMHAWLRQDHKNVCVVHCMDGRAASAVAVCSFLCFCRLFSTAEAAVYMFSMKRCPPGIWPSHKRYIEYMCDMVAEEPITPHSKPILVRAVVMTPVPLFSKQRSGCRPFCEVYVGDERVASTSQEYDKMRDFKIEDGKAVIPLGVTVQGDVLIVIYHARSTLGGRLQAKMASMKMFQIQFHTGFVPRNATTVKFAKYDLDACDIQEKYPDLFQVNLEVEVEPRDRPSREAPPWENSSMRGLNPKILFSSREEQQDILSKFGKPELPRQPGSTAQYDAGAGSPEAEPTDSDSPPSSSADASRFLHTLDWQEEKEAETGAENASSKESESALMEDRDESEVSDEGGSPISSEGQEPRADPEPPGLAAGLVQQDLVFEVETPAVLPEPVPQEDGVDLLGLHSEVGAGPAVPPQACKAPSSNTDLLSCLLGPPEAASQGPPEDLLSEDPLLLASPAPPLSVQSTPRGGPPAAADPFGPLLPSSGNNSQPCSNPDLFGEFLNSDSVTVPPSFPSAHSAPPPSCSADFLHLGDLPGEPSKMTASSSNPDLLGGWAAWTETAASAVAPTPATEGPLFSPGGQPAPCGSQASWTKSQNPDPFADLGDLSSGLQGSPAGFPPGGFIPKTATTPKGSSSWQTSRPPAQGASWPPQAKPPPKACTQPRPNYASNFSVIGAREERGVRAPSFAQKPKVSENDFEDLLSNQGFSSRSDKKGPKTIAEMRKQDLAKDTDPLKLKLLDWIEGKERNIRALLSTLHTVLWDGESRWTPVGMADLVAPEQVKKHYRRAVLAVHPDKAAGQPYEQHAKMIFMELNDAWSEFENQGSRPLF", "assay": "Selectivity interaction (KinomeScan (DiscoverX)) EUB0000666a GAK", "details": "at 10 µM"}, "[3]": {"biological_target": "Homeodomain-interacting protein kinase 1 (Homo sapiens, UniProt Q86Z02)", "sequence (Q86Z02 whole entry, looked up)": "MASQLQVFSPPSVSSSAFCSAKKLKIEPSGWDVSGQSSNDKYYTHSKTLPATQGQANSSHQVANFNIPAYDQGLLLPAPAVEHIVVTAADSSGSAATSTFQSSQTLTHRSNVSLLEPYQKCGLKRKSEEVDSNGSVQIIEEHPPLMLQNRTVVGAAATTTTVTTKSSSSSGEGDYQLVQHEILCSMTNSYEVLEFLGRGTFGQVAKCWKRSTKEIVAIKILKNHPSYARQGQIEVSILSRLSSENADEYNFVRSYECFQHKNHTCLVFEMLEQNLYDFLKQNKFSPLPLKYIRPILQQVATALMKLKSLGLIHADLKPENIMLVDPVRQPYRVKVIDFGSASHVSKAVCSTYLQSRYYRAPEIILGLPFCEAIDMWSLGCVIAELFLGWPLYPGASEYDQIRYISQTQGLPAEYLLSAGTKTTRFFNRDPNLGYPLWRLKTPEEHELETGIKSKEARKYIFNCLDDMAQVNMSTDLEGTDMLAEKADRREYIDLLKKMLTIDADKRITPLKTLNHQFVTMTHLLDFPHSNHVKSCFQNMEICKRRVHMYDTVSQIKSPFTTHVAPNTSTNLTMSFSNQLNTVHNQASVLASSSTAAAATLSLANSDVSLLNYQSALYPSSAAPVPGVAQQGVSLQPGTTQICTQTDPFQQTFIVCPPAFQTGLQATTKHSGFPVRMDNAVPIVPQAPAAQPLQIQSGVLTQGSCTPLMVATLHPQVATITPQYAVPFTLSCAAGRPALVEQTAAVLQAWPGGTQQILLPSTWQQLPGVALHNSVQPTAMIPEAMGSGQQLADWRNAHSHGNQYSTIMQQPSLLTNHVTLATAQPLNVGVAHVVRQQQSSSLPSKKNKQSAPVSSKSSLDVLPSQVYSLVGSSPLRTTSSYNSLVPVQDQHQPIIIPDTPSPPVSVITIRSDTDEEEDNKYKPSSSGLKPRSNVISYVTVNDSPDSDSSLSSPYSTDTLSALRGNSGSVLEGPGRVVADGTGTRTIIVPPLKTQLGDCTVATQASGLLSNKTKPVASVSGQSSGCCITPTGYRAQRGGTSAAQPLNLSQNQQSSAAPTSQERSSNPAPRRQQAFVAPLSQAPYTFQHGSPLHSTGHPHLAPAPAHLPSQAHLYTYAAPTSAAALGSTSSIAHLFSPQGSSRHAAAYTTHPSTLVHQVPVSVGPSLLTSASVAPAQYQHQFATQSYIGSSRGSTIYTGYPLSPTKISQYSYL", "details": "at 10 µM"}, "[4]": {"biological_target": "Mitogen-activated protein kinase 14 (Homo sapiens, UniProt Q16539)", "sequence (Q16539 whole entry)": "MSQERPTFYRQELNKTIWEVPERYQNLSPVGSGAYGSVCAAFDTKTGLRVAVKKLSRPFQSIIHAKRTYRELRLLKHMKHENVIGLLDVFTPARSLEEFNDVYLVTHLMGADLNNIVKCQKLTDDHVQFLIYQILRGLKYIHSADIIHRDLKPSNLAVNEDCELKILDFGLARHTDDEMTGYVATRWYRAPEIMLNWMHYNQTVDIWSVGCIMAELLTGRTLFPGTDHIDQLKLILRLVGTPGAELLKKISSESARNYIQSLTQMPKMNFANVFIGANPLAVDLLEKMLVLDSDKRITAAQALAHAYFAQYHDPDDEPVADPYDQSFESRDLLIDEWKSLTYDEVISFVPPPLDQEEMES", "assay": "Selectivity interaction (ActivX KiNativ screen (kinase selectivity in THP-1 cell lysates)) EUB0000639a MAPK14", "type": "subcellular", "details": "lysate"}, "[5]": {"biological_target": "Protein-tyrosine kinase 2-beta (Homo sapiens) (UniProt Q14289)", "sequence (Q14289 whole entry, looked up)": "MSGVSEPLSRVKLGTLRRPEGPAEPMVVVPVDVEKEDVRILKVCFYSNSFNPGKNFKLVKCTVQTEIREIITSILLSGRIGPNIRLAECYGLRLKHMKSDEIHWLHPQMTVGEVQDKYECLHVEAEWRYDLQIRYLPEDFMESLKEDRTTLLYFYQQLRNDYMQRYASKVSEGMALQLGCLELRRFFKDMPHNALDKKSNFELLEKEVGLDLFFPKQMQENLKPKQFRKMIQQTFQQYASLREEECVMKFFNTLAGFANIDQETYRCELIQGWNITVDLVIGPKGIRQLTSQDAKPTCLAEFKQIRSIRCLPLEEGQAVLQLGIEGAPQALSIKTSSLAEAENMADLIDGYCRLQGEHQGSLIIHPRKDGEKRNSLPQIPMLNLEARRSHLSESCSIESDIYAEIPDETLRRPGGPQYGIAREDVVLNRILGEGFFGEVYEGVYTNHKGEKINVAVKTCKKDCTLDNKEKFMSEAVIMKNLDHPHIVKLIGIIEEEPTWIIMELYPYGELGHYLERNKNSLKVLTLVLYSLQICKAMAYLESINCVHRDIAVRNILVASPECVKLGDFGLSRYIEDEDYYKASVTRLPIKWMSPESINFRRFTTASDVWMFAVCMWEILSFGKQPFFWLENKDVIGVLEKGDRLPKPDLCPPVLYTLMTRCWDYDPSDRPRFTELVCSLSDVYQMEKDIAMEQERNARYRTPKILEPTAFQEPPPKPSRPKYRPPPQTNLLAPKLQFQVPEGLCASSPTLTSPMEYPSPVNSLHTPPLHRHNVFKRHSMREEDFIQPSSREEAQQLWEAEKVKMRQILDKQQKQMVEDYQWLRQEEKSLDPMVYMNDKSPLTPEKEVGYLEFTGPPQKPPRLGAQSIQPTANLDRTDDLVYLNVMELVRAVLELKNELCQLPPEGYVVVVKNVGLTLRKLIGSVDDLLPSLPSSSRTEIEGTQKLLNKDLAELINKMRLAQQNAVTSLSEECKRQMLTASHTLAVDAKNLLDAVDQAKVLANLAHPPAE", "assay": "Selectivity interaction (KinomeScan (DiscoverX)) EUB0000618a PTK2B", "details": "at 10 µM"}, "[6]": {"biological_target": "Sigma non-opioid intracellular receptor 1 (Homo sapiens) (UniProt Q99720)", "sequence (Q99720 whole entry)": "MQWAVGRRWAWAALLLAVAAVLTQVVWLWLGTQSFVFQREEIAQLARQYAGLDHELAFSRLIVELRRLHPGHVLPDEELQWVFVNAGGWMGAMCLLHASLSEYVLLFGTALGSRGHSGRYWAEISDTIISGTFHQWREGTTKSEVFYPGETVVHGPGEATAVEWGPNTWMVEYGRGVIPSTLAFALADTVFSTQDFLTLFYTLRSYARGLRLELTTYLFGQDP", "assay": "Selectivity interaction (Eurofins CEREP Diversity Profile (receptors and ion channels)) EUB0000279b SIGMAR1", "details": "at 10 µM"}, "[7]": {"biological_target": "T3, Tyrosine-protein kinase receptor TYRO3 (Homo sapiens) (UniProt Q06418)", "T3 sequence (whole entry)": "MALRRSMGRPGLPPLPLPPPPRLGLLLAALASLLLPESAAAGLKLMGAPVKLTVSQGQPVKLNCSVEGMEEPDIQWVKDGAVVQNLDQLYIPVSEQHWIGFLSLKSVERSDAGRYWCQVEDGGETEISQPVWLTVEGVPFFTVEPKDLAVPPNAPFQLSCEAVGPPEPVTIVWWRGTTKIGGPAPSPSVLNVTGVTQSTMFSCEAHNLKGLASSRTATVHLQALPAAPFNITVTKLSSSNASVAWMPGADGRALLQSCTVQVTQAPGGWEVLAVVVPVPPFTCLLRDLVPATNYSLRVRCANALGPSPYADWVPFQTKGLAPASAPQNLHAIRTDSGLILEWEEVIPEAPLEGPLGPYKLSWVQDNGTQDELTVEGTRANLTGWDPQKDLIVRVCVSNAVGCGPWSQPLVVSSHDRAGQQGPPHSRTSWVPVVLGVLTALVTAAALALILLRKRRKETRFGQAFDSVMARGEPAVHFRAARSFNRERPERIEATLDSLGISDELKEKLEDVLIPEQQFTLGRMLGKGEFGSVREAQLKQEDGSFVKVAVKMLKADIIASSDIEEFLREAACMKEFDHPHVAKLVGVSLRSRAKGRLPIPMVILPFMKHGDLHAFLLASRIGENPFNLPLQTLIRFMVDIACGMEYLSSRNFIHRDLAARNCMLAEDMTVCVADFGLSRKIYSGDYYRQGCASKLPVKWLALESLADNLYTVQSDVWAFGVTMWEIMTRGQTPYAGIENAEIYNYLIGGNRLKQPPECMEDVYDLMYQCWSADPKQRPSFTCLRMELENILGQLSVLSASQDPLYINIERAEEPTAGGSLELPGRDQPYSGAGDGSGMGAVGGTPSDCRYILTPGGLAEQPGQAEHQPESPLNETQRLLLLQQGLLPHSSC", "assay": "Selectivity interaction (Ambit KINOMEscan and KiNATiv profiling in Jurkat cells) EUB0000090b TYRO3", "type": "cell-based", "details": "at 1 µM"}},
  "data": [
    {"compound": "Nc1cnc(N2CCc3cc(S(=O)(=O)Nc4c(F)cc(Cl)cc4F)cc(N4CCCC4=O)c32)nc1", "note": "[TP-020n]", "values": [
      {"measurement": "% of control", "setting": "[1]", "result": 100, "unit": "%"}
    ]},
    {"compound": "O=C(NOC[C@H](O)CO)c1ccc(F)c(F)c1Nc1ccc(I)cc1F", "values": [
      {"measurement": "% of control", "setting": "[2]", "result": 71, "unit": "%"}
    ]},
    {"compound": "Cc1cc([C@@H](C)Nc2ccccc2C(=O)O)c2nc(N3CCOCC3)cc(=O)n2c1", "note": "[AZD-6482]", "values": [
      {"measurement": "% of control", "setting": "[3]", "result": 100, "unit": "%"}
    ]},
    {"compound": "CC[C@@H]1[C@H](F)C(=O)N[C@@H]1COc1nccc2cc(C(N)=O)c(OC)cc12", "note": "[ZIMLOVISERTIB]", "values": [
      {"measurement": "% of inhibition", "setting": "[4]; at 0.01 µM", "result": 0.8, "unit": "%"},
      {"measurement": "% of inhibition", "setting": "[4]; at 0.04 µM", "result": 1.1, "unit": "%"},
      {"measurement": "% of inhibition", "setting": "[4]; at 0.2 µM", "result": 10.2, "unit": "%"},
      {"measurement": "% of inhibition", "setting": "[4]; at 1 µM", "result": 10.6, "unit": "%"},
      {"measurement": "% of inhibition", "setting": "[4]; at 5 µM", "result": 4.8, "unit": "%"}
    ]},
    {"compound": "O[C@H]1CC[C@H](Nc2ncc3nc(Nc4c(F)cc(F)cc4F)n([C@H]4CCOC4)c3n2)CC1", "values": [
      {"measurement": "% of control", "setting": "[5]", "result": 91, "unit": "%"}
    ]},
    {"compound": "CC(=O)c1cc(-c2ccccc2OCC2CC2)c2ncccn12", "values": [
      {"measurement": "% of control", "setting": "[6]", "result": 98, "unit": "%"}
    ]},
    {"compound": "CN(C)C/C=C/C(=O)Nc1ccc(C(=O)N2CCCC(Nc3ncc(Cl)c(-c4c[nH]c5ccccc45)n3)C2)cc1", "note": "(stereo unspecified)", "values": [
      {"measurement": "% of control", "setting": "[7]", "result": 95, "unit": "%"}
    ]}
  ]
}
